# Measured values reported in US20150143553A1, “Methods And Compositions Comprising A Drosophila Model Of Amyotrophic Lateral Sclerosis” (priority 2013, published 2015).
# Counter-ions that a name gives are not always drawn.
# Test system: Drosophila larvae expressing wild-type TDP-43 in motor neurons
# Test: Drug screen: rescue of lethality caused by wild-type TDP-43 expression in motor neurons (D42 Gal4)
# Assay type: in vivo
# Conditions: transgene WT2; 30 μM in fly food
# Excerpt: […] Larvae expressing TDP-43 (wild type or mutant, as shown) are raised on drug containing food.
# […] Larvae expressing TDP-43 (wt or mutant) were raised on drug containing food.
# Using a Drosophila model of ALS based on TDP-43 that recapitulates several aspects of the disease pathophysiology (33, 35), a drug screen aimed at identifying FDA approved compounds with neuroprotective potential in vivo were designed (FIG. 37A). […] This phenotype was used to screen for drug candidates with therapeutic potential as determined by their ability to rescue pupal lethality and produce viable adults with extended wings (FIG. 37A). […]
# UAS TDP-43 males were crossed with D42-Gal4 female virgins on fly food containing either DMSO or pioglitazone. For DMSO controls, the same volume of DMSO as the corresponding drug concentration was added. Bromophenol blue was added to a final concentration of approximately 0.02% to ensure homogeneity. Crosses were made on drug food with 3 female virgins and 2 males in each vial, and were maintained at 25° C. unless noted. The parents were discarded after 5-7 days then the vials were screened for adult progeny with straight wings from day 14 to day 25. All adults were screened for TDP-43 expression by visualizing the YFP tag. Total number of pupae was counted on day 25. Percent survival was calculated using the formula (total number of straight-winged adults/total number of pupae)×100. All experiments were performed in triplicate.
row,SMILES,Preliminary rescue result: adults with normal wings
1,"Cl.NCC(O)c1ccc(O)cc1 (racemic) [(+,−)-Octopamine HCl]",5 Adult Normal Wings Adults
2,CC(=O)Oc1ccccc1C(=O)O [Acetylsalicylic Acid],1/1
3,CCC(=O)OCC(=O)[C@@]1(OC(=O)CC)[C@H](C)C[C@H]2[C@H]3[C@H]([C@@H](O)C[C@@]21C)[C@@]1(C)C=CC(=O)C=C1C[C@H]3Cl [Alclometasone Dipropionate],2 Adult Normal Wings Adults
4,CCCCC(CC)CNC(=N)NC(=N)NCCCCCCNC(=N)NC(=N)NCC(CC)CCCC (centres unmarked) [Alexidine Dihydrochloride],6 Adults Normal Wings
5,CC(=O)OCC(=O)[C@@]12OC3(CCCC3)O[C@@H]1C[C@H]1[C@@H]3CCC4=CC(=O)C=C[C@]4(C)[C@@]3(F)[C@@H](O)C[C@@]12C [Amcinonide],1/1
6,CN(C)CCCO[C@@H]1[C@H]2OC(C)(C)O[C@H]2O[C@@H]1[C@H](O)CO [Amiprilose HCl],1 Adult Normal Wings Adults
7,Nc1cc(-c2ccncc2)c[nH]c1=O [Amrinone],1 Adult Normal Wings Adults
8,CC(C)c1c(C(=O)Nc2ccccc2)c(-c2ccccc2)c(-c2ccc(F)cc2)n1CC[C@@H](O)C[C@@H](O)CC(=O)O [Atorvastatin],1 Adult Normal Wings Adults
9,CC[C@H]1OC(=O)[C@H](C)[C@@H](O[C@H]2C[C@@](C)(OC)[C@@H](O)[C@H](C)O2)[C@H](C)[C@@H](O[C@@H]2O[C@H](C)C[C@H](N(C)C)[C@H]2O)[C@](C)(O)C[C@@H](C)CN(C)[C@H](C)[C@@H](O)[C@]1(C)O [Azithromycin],1 Adult Normal Wings Adults
10,CC1(C)S[C@@H]2[C@H](NC(=O)[C@H](NC(=O)N3CCNC3=O)c3ccccc3)C(=O)N2[C@H]1C(=O)[O-].[Na+] [Azlocillin Na Salt],1 Adult Normal Wings Adults
11,CN1[C@@H]2CC[C@H]1C[C@@H](OC(c1ccccc1)c1ccccc1)C2 [Benztropine Mesylate],2 Adult Normal Wings Adults
12,C[N+](C)(CCOc1ccccc1)Cc1ccccc1.O=C([O-])c1cc2ccccc2cc1O [BepheniμM Hydroxynaphthoate],2 Adult Normal Wings Adults
13,COc1ccccc1OCCNCC(O)COc1cccc2[nH]c3ccccc3c12 (centres unmarked) [Carvedilol],1 Adult Normal Wings Adults
14,Cn1nnnc1SCC1=C(C(=O)[O-])N2C(=O)[C@@H](NC(=O)[C@H](O)c3ccccc3)[C@H]2SC1.[Na+] [Cefamandole Na Salt],2/3 Adult Normal Wing
15,CO/N=C(\C(=O)N[C@@H]1C(=O)N2C(C(=O)O)=C(C[N+]3(C)CCCC3)CS[C@H]12)c1csc(N)n1 [Cefepime Hydrochloride],2 Adult Normal Wings Adults
16,CO[C@@]1(NC(=O)Cc2cccs2)C(=O)N2C(C(=O)O)=C(COC(N)=O)CS[C@@H]21 [Cefoxitin Sodium Salt],1 Adult Normal Wings Adults
17,COCCOC(=O)C1=C(C)NC(C)=C(C(=O)OC/C=C/c2ccccc2)C1c1cccc([N+](=O)[O-])c1 (centres unmarked) [Cilnidipine],2 Adult Normal Wings Adults

row,SMILES,Preliminary rescue result: adults with normal wings
1,NC1CCN(c2c(F)cc3c(=O)c(C(=O)O)cn(C4CC4)c3c2Cl)C1 (centres unmarked) [Clinafloxacin],4 Adult Normal Wings Adults
2,CC(C)(Oc1ccc(Cl)cc1)C(=O)O [Clofibric Acid],2 Adult Normal Wings Adults
3,Clc1ccc(C(OCCN2CCCCC2)c2ccccc2)cc1 (centres unmarked) [Cloperastine HCl],1 Adult Normal Wings Adults
4,NS(=O)(=O)c1cc2c(cc1Cl)NC(CC1CCCC1)NS2(=O)=O (centres unmarked) [Cyclopenthiazide],1 Adult Normal Wings Adults
5,NC(=O)C(c1ccccc1)(c1ccccc1)[C@@H]1CCN(CCc2ccc3c(c2)CCO3)C1 [Darifenacin Hydrobromide],3 Adult Normal Wings Adults
6,C[C@]12CC[C@H]3[C@@H](CCC4=CC(=O)CC[C@@]43C)[C@@H]1CC[C@@H]2C(=O)CO [Deoxycorticosterone],1 Adult Normal Wings Adults
7,NS(=O)(=O)c1cc(Cl)c(Cl)c(S(N)(=O)=O)c1 [Dichlorphenamide],2 Adult Normal Wings Adults
8,COc1ccc(C(=O)c2ccccc2O)c(O)c1 [Dioxybenzone],14 Adult Normal Wings Adults
9,COc1cc2nc(N3CCN(C(=O)C4COc5ccccc5O4)CC3)nc(N)c2cc1OC (centres unmarked) [Doxazosin Mesylate],1 Adult Normal Wings Adults
10,CCN(CC)CCOC(=O)C(c1ccccc1)C1CCCCC1 (centres unmarked) [Drofenine HCl],1 Adult Normal Wings Adults
11,CCCCC(=O)O[C@H]1CC[C@H]2[C@@H]3CCc4cc(O)ccc4[C@H]3CC[C@]12C [Estradiol Valerate],1 Adult Normal Wings Adults
12,C#C[C@]1(O)CC[C@H]2[C@@H]3CCc4cc(OC)ccc4[C@H]3CC[C@@]21C [Ethynyletradiol 3-Methyl Ether],5 Adult Normal Wings Adults
13,CCNCC(O)c1cccc(O)c1.Cl (centres unmarked) [Etilifrine Hydrochloride],1 Adult Normal Wing Adults
14,CC1CC(OC(=O)C(O)c2ccccc2)CC(C)(C)N1C (centres unmarked) [Eucatropine HCl],1 Adult Normal Wings Adults
15,O=C(O)Cc1ccc(-c2ccccc2)cc1 [Felbinac],1 Adult Normal Wings Adults
16,CC(C(=O)[O-])c1cccc(Oc2ccccc2)c1.CC(C(=O)[O-])c1cccc(Oc2ccccc2)c1.O.O.[Ca+2] (centres unmarked) [Fenoprofen Ca Salt Dihydrate],2 Adult Normal Wings Adults

# Same assay, conditions: transgene WT2; 50 μM in fly food
row,SMILES,Preliminary rescue result: adults with normal wings
1,COC(c1ccccc1)(c1ccccc1)[C@H](Oc1nc(C)cc(C)n1)C(=O)O [Amrisentan],1 Adult Normal Wings Adults
2,O=C1c2c(O)cccc2Cc2cccc(O)c21 [Anthralin],1 Adult Normal Wings Adults
3,CCCCOc1cc(C(=O)OCCN(CC)CC)ccc1N [Benoxinate Hydrochloride],1 Adult Normal Wings Adults
4,CC(C)NCC(O)COc1ccc(COCCOC(C)C)cc1.CC(C)NCC(O)COc1ccc(COCCOC(C)C)cc1.O=C(O)/C=C/C(=O)O (centres unmarked) [Beoprolol Fumarate],1 Adult Normal Wings Adults
5,C=CCC1(CC(C)C)C(=O)NC(=O)NC1=O [Butalbital],1 Adult Normal Wings Adults
6,COC(=O)N/N=C/c1c[n+]([O-])c2ccccc2[n+]1[O-] [Carbadox],1 Adult Normal Wings Adults
7,CC(C)(C)NCC(O)COc1cccc2c1CCC(=O)N2 (centres unmarked) [Carteolol HCl],2 Adults Normal Wings
8,Cc1ccc(-c2cc(C(F)(F)F)nn2-c2ccc(S(N)(=O)=O)cc2)cc1 [Celecoxib],1 Adult Normal Wings Adults
9,CN(C)CC/C=C1/c2ccccc2Sc2ccc(Cl)cc21 [Chlorprothixene],3 Adults Normal Wings
10,O=P(O)(O)C(Cl)(Cl)P(=O)(O)O [Clodronate],3 Adult Normal Wings Adults
11,Cc1cc(C(C#N)c2ccc(Cl)cc2)c(Cl)cc1NC(=O)c1cc(I)cc(I)c1O (centres unmarked) [Closantel],2 Adults Normal Wings
12,Clc1ccccc1C(c1ccccc1)(c1ccccc1)n1ccnc1 [Clotrimazole],1 Adult Normal Wings Adults
13,CN1CCN(C(c2ccccc2)c2ccccc2)CC1 [Cyclizine Hcl],1 Adult Normal Wings Adults
14,CCCCOc1cc(C(=O)NCCN(CC)CC)c2ccccc2n1 [Dibucaine],1 Adult Normal Wings Adults
15,Cc1onc(-c2c(Cl)cccc2Cl)c1C(=O)N[C@@H]1C(=O)N2[C@@H]1SC(C)(C)[C@@H]2C(=O)O [Dicloxacillin Sodium Salt],1 Adult Normal Wings Adults
16,CCn1cc(C(=O)O)c(=O)c2cc(F)c(N3CCNCC3)nc21 [Enoxacin],3 Adult Normal Wings Adults
17,CCN(CC)C(=O)c1ccc(O)c(OC)c1 [Ethamivan],1 Adult Normal Wings Adults
